# Target: Replicase polyprotein 1ab (Severe acute respiratory syndrome-related coronavirus, UniProt P0C6X7)
# Assay: Inhibition of SARS coronavirus 3CL protease pretreated for 10 mins before substrate addition
row,Structure (SMILES),Ki
1,CCCN(CCC)C(=O)CC[C@H](NC(=O)[C@H](CC(C)C)NC(=O)[C@@H](NC(=O)[C@H](C)NC(=O)OCc1ccccc1)C(C)C)C(=O)C(F)(F)F,297 µM
2,CCN(CC)C(=O)CC[C@H](NC(=O)[C@H](CC(C)C)NC(=O)[C@@H](NC(=O)OCc1ccccc1)C(C)C)C(=O)c1nc2ccccc2s1,49.3 µM
3,CCCN(CCC)C(=O)CC[C@H](NC(=O)[C@H](CC(C)C)NC(=O)[C@@H](NC(=O)OCc1ccccc1)C(C)C)C(=O)C(F)(F)F,363 µM
4,CC(C)C[C@H](NC(=O)[C@@H](NC(=O)OCc1ccccc1)C(C)C)C(=O)N[C@@H](CCC(=O)c1nccs1)C(=O)c1nccs1,45.2 µM
5,CCCN(CCC)C(=O)CC[C@H](NC(=O)[C@H](CC(C)C)NC(=O)OCc1ccccc1)C(=O)C(F)(F)F,584 µM
6,CCN(CC)C(=O)CC[C@H](NC(=O)[C@H](CC(C)C)NC(=O)OCc1ccccc1)C(=O)c1nccs1,462 µM
7,CC(C)C[C@H](NC(=O)[C@@H](NC(=O)OCc1ccccc1)C(C)C)C(=O)N[C@@H](CCC(=O)N1CCOCC1)C(=O)C(F)(F)F,21 µM
8,CC(C)C[C@H](NC(=O)[C@@H](NC(=O)OCc1ccccc1)C(C)C)C(=O)N[C@@H](CCC(=O)N1CCOCC1)C(=O)c1nccs1,478 µM
9,CC(C)C[C@H](NC(=O)[C@@H](NC(=O)OCc1ccccc1)C(C)C)C(=O)N[C@@H](CCC(=O)N(C)Cc1ccccc1)C(=O)C(F)(F)F,34.1 µM
10,CCN(CC)C(=O)CC[C@H](NC(=O)[C@H](CC(C)C)NC(=O)[C@@H](NC(=O)OCc1ccccc1)C(C)C)C(=O)c1nccs1,112 µM
11,CCN(CC)C(=O)CC[C@H](NC(=O)[C@@H](NC(=O)OCc1ccccc1)C(C)C)C(=O)c1nccs1,614 µM
12,CCN(CC)C(=O)CC[C@H](NC(=O)[C@@H](NC(=O)OCc1ccccc1)C(C)C)C(=O)c1nc2ccccc2s1,159 µM

# — ChEMBL document CHEMBL1151865, “New developments for the design, synthesis and biological evaluation of potent SARS-CoV 3CL(pro) inhibitors” (Bioorg Med Chem Lett, 2009)
